Laboratory results taken from patent EP0022634A1, “Acylated indole derivatives, processes for their preparation and pharmaceutical compositions and drugs comprising them” (TEIJIN LIMITED, priority 1979, dated 1981).
Converted amounts (≈) assume the structure as drawn. Read-outs that look alike come from different tables or passages of the source.

How the values were obtained:
platelet aggregation [1] = test: in vitro platelet aggregation inhibiting activity (sodium arachidonate as aggregating agent); assay type: cell-based; conditions: guinea pigs PRP, final concentration 0.1 millimole, minimum final concentration whose inhibiting rate exceeded 50 %
Protocol: The platelet aggregation inhibiting activities in vitro of test drugs including the acylated indole derivatives of this invention were assayed using guinea pigs PRP.
As an aggregating agent, sodium arachidonate having a final concentration of 0.1 millimole was used.
The citrated blood was centrifuged at 1000 rpm for 10 minutes at room temperature, and the supernatant liquid (PRP) was separated.
The resulting PRP was stored at room temperature, and used as early as possible. PRP stored for more than 4 hours was not used.
A compound having a free carboxylic acid as a residue, such as Indomethacin and Ibprofen, was dissolved in O.lM NaHC03 to provide a sodium salt solution having a concentration of 10 mg/ml. The solution was similarly diluted with physiological saline to prepare a solution of a test drug.
The solution was diluted with physiological saline to form a 1mM solution which was used in the test.
50 µℓ of physiological saline and 50 µℓ of the aggregating agent solution were added to 400 µℓ of PRP which had been warmed in a cuvette at 37°C in an aggregometer to aggregate the platelet. The aggregation curve was recorded for 3 minutes by an aggregometer (a product of Bryston Company). The maximum degree of aggregation in this platelet aggregation was defined as the maximum degree of aggregation in the blank.
Then, 50 µℓ of a 1mM solution of sodium arachidonate was added, and the platelet aggregation curve was recorded in the same way as in (1) above. From the curve, the maximum degree of aggregation was calculated, and the inhibiting rate was calculated in accordance with the following equation. Maximum degree of aggregation Inhibiting 100 - in the Ibprofen-added system 100 rate (%) Maximum degree of aggregation in the blank
If these inhibiting rates are not attained, the concentration of the solution of sodium arachidonate is not suitable, and therefore, its concentration should be re-adjusted, and the test shall be performed again.
50 µℓ of the test compound solution was added to 400 µℓ of PRP, and the mixture was pre-incubated in the same way as in(2) above. Then, 50 µℓ of the solution of sodium arachidonate having its concentration adjusted in (2) was added, and the aggregation curve was recorded for 3 minutes. The maximum degree of aggregation of platelet within this period was measured, and the rate of inhibition was calculated from the following equation. […] Maximum degree of aggregation Inhibiting _ 100 - in the drug-added system x 100 rate (%) Maximum degree of aggregation in the blank
For details of the in vitro platelet aggregation inhibiting test, see H. M. Davis, J. Phyllis, K. Paul and W. Terry: Thromb. […] Haemos.

platelet aggregation [2] = test: extra vivo platelet aggregation inhibiting activity after oral administration, sodium arachidonate as aggregating agent; assay type: in vivo, guinea pigs; conditions: Cavia porcellus, 0.03 mM sodium arachidonate; for inhibition at 10 mg/kg: oral dosage 10 mg/kg; for inhibition at 1 mg/kg: oral dosage 1 mg/kg
Protocol: (§1) The platelet aggregation inhibiting activities extra vivo of drugs sampled at random were examined using guinea pigs.
(§2) The drugs were used dissolved in propylene glycol to a concentration of 1 mg/ml (when the dosage was 1 mg/kg), 10 mg/ml (when the dosage was 10 mg/kg), and 30 mg/ml (when the dosage was 30 mg/kg). The drugs were administered orally to male Hartley guinea pigs (three in a group) having a body weight of 300 to 350 g. Propylene glycol was administered to a control group.
(§3) One hour, or 4 hours after the administration, citrated blood was taken out from the subject by cardiac puncture.
(§4) The guinea pigs were caused to fast overnight before use.
(§5) The inhibiting rate of the test drugs was measured as follows: • 450 µℓ of PRP was put into a cuvette of an aggregometer, and then 50 µℓ of the aggregating agent was added. The aggregation curve was recorded for 3 minutes, and the maximum degree of aggregation was measured. As a blank, the maximum degree of aggregation of PRP of the group of guinea pigs to which propylene glycol had been administered was measured. The rate of inhibition was calculated from the following equation. [formula]
(§6) As the aggregating agent, 0.03 mM (final concentration sodium arachidonate and 5 µg/ml (final concentration) collagen floating solution were used.
For details of the extra vivo platelet aggregation inhibiting test, see Davis. H. M., Phyllis, J., Paul, K and Terry, W.: Thromb. […] Haemos.

platelet aggregation [3] = test: extra vivo platelet aggregation inhibiting activity after oral administration, collagen as aggregating agent; assay type: in vivo, guinea pigs; conditions: Cavia porcellus
Protocol: The collagent floating solution made by Hormone Company of west Germany was diluted with physiological saline to a concentration of 100 µg/ml for use in the test.
as §1, §2, §3, §4, §5, §6
For details of the extra vivo platelet aggregation inhibiting test, see Davis. H. M., Phyllis, J., Paul, K and Terry, W.: Thromb. Res. 11, 217-226 (1977) and Anderson R. E. and Foulks J. G.: Thromb. Haemos. 36, 343-359 (1976).

[4] = Cavia porcellus, Platelet, read-out: IC50
[5] = blood taken 1 hour after administration, read-out: Rate of inhibition of platelet aggregation, Sodium arachidonate, After 1 hour
[6] = blood taken 4 hours after administration, read-out: Rate of inhibition of platelet aggregation, Sodium arachidonate, After 4 hours
[7] = po, 1 h, read-out: Rate of inhibition of platelet aggregation, Collagen, After 1 hour
[8] = po, 4 h, read-out: Rate of inhibition of platelet aggregation, Collagen, After 4 hours

SMILES | IC50 (platelet aggregation [1]; [4]) | inhibition at 10 mg/kg (platelet aggregation [2]; [5]) | inhibition at 10 mg/kg (platelet aggregation [2]; [6]) | inhibition at 10 mg/kg (platelet aggregation [3]; [7]) | inhibition at 10 mg/kg (platelet aggregation [3]; [8]) | further results
Cc1[nH]c2ccccc2c1C(=O)c1ccccc1 [Comparison 2, reference compound] | 5 µg/mL (≈ 21.3 µM) |  |  |  |  | 
Cc1c(C(=O)c2ccccc2)c2ccccc2n1C(C)CSc1ccccc1 (stereo not shown) [(401), 3-Benzoyl-2-methyl-1-(1-phenylthio-2-propyl)-indole] | 0.25 µg/mL (≈ 0.648 µM) | 100% | 100% | 100% | 100% | 
Cc1c(C(=O)c2ccccc2)c2ccccc2n1C(C)C(=O)O (stereo not shown) [Comparison 1, reference compound] | 50 µg/mL (≈ 163 µM) |  |  |  |  | 
COC[C@H](C)n1c(C)c(C(=O)c2ccccc2)c2ccccc21 [(347), 3-benzoyl-1-[1-methoxy-2(S)-propyl)-2-methylindole] | 0.075 µg/mL (≈ 0.244 µM) |  |  |  |  | 
CCSCCC(C)n1c(C)c(C(=O)c2ccccc2)c2ccccc21 (stereo not shown) [(409), 3-Benzoyl-1-(4-ethylthio-2-butyl)-2-methylindole] | 0.25 µg/mL (≈ 0.711 µM) | 100% | 48.8% | 100% | 100% | 
Cc1[nH]c2ccccc2c1C(=O)c1ccc(Cl)cc1 [Comparison 6, reference compound] |  | 12.3% | 6% |  |  | inhibition at 10 mg/kg (platelet aggregation [3]; oral dosage 10 mg/kg, 5 µg/ml collagen floating solution, blood taken 1 hour after administration, read-out: Rate of inhibition of platelet aggregation, Collagen, After 1 hour): 36%; inhibition at 10 mg/kg (platelet aggregation [3]; oral dosage 10 mg/kg, 5 µg/ml collagen floating solution, blood taken 4 hours after administration, read-out: Rate of inhibition of platelet aggregation, Collagen, After 4 hours): 28.9%
CCSCC(CC)n1c(C)c(C(=O)c2ccccc2)c2ccccc21 (stereo not shown) [(417), 3-Benzoyl-1-(1-ethylthio-2-butyl)-2-methylindole] |  | 100% | 37% | 100% | 100% | 
CC(=O)OCCC(C)n1c(C)c(C(=O)c2ccccc2)c2ccccc21 (stereo not shown) [(201), 1-(4-acetoxy-2-butyl)-3-benzoyl-2-methylindole] | 0.075 µg/mL (≈ 0.215 µM) | 100% | 100% | 100% | 100% | 
COCC(C)n1c(C)c(C(=O)c2cccs2)c2ccccc21 (stereo not shown) [(315), 1-(1-Methoxy-2-propyl)-2-methyl-3-thenoylindole] |  |  |  |  |  | IC50 (platelet aggregation [1]): 0.01 to 0.1 µg/mL
Cc1c(C(=O)c2ccccc2)c2cc(O)ccc2n1C(C)CO (stereo not shown) [(117), 3-Benzoyl-5-hydroxy-1-(1-hydroxy-2-propyl)-2-methylindole] | 0.25 µg/mL (≈ 0.808 µM) | 100% | 8.6% | 72.1% | 2.2% | 
Cc1c(C(=O)c2ccccc2)c2ccccc2n1C(C)CCSc1ccccn1 (stereo not drawn) [(414), 3-Benzoyl-2-methyl-l-(4-(2-pyridylthio)-2-butyl]indole] |  | 100% | 100% |  |  | 
Cc1c(C(=O)c2ccccc2)c2ccccc2n1C(C)C[S+]([O-])c1ccccc1 (stereo not shown) [(501), 1-(1-Benzenesulfinyl-2-propyl)-3-benzoyl-2-methylindole] |  | 100% | 100% | 100% | 100% | 
Cc1c(C(=O)c2ccccc2)c2ccccc2n1[C@@H](C)CO [(136), 3-Benzoyl-1-(1-hydroxy-2(S)-propyl]-2-methylindole] | 0.05 µg/mL (≈ 0.17 µM) |  |  |  |  | 
Cc1c(C(=O)c2ccccc2)c2ccccc2n1C(C)CCS (stereo not shown) [(423), 3-Benzoyl-1-(4-mercapto-2-butyl)-2-methylindole] |  | 100% | 100% | 100% | 100% | 
CCOCCC(C)n1c(C)c(C(=O)c2ccccc2)c2ccccc21 (stereo not shown) [(307), 3-Benzoyl-1-(4-ethoxy-2-butyl)-2-methylindole] | 0.25 µg/mL (≈ 0.745 µM) | 100% | 100% | 98.3% | 100% | 
COC[C@@H](C)n1c(C)c(C(=O)c2ccccc2)c2ccccc21 [(346), 3-Benzoyl-1-[1-methoxy-2(R)-propyl]-2-methylindole] | 0.05 µg/mL (≈ 0.163 µM) |  |  |  |  | 
CSCC(C)n1c(C)c(C(=O)c2ccccc2)c2ccccc21 (stereo not shown) [(402), 3-Benzoyl-2-methyl-1-(1-methylthio-2-propyl)-indole] | 0.075 µg/mL (≈ 0.232 µM) |  |  |  |  | 
CCC(COC(C)=O)n1c(C)c(C(=O)c2ccccc2)c2ccccc21 (stereo not shown) [(205), 1-(1-acetoxy-2-butyl)-3-benzoyl-2-methylindole] | 0.1 µg/mL (≈ 0.286 µM) | 100% | 85.3% | 100% | 93.8% | 
COc1ccc2c(c1)c(C(=O)c1ccccc1)c(C)n2C(C)CO (stereo not shown) [(116), 3-benzoyl-1-(1-hydroxy-2-propyl)-5-methoxy-2-methylindole] | 0.5 µg/mL (≈ 1.55 µM) | 100% | 0.7% | 100% | 0% | 
CCSCC(C)n1c(C)c(C(=O)c2ccccc2)c2ccccc21 (stereo not shown) [(400), 3-Benzoyl-1-(1-ethylthio-2-propyl)-2-methylindole] | 0.5 µg/mL (≈ 1.48 µM) | 100% | 67.4% | 100% | 100% | 
CCC(CO)n1c(C)c(C(=O)c2ccccc2)c2ccccc21 (stereo not shown) [(101), 3-Benzoyl-1-(1-hydroxy-2-butyl)-2-methylindole] | 0.1 µg/mL (≈ 0.325 µM) | 99% | 99% | 100% | 100% | 
CCC(COC)n1c(C)c(C(=O)c2ccccc2)c2ccccc21 (stereo not shown) [(311), 3-Benzoyl-1-(1-methoxy-2-butyl)-2-methylindole] | 0.25 µg/mL (≈ 0.778 µM) | 68.8% | 100% | 100% | 81.1% | 
CCC(C)n1c(C)c(C(=O)c2ccccc2)c2ccccc21 (stereo not shown) [(701), 3-Benzoyl-1-(2-butyl)-2-methylindole] |  | 100% | 100% |  |  | 
CC(=O)OCC(C)n1c(C)c(C(=O)c2ccccc2)c2ccccc21 (stereo not shown) [(200), 1-(1-Acetoxy-2-propyl)-3-benzoyl-2-methylindole] | 0.075 µg/mL (≈ 0.224 µM) |  |  |  |  | inhibition at 1 mg/kg (platelet aggregation [2]; [5]): 90%; inhibition at 1 mg/kg (platelet aggregation [2]; [6]): 91.8%
Cc1c(C(=O)c2ccccc2)c2ccccc2n1[C@H](C)CO [(135), 3-Benzoyl-1-[1-hydroxy-2(R)-propyl]-2-methylindole] | 0.025 µg/mL (≈ 0.0852 µM) |  |  |  |  | 
COCCn1c(C)c(C(=O)c2ccccc2)c2ccccc21 [Comparison 4, reference compound] |  | 45.5% | 7.1% | 38% | 7.6% | 
